Measurements from US10676440B2, “Crystalline forms of an NK-1 antagonist” (Helsinn Healthcare SA, priority 2014, dated 2020).

Assays:
Format in all cases: physicochemical
[1] = Approximate solubility in water at rt
[2] = Moisture adsorption/desorption (DVS), hygroscopicity
Procedure: Moisture Adsorption/Desorption data was collected on a DVS-1 (SMS Surface Measurements Systems) moisture balance system. The sorption/desorption isotherms were measured stepwise in a range of 0% RH to 90% RH at 25° C. A weight change of <0.002 mg/min was chosen as the criterion to switch to the next level of relative humidity (with a maximum equilibration time of 6 hours if the weight criterion was not met). The data were corrected for the initial moisture content of the samples so that the weight after drying the sample at 0% relative humidity was taken as the zero point. The hygroscopicity of a given substance was characterized, in accordance with the European Phamacopoeia (Technical Guide 1999), by the increase in mass when the relative humidity is raised from 0% RH to 90% RH, as defined below (where weight increase=x):
Slightly hygroscopic: 0.2%≤x<2.0%
Very hygroscopic: x≥15.0%
Deliquescent: Sufficient liquid as adsorbed to form a liquid

[3] = Gravimetric solubility of Form I in solvents
Procedure: Solubility was determined gravimetrically. A weighted sample of Form I was suspended in a defined amount of solvent. After equilibration and solvent-liquid separation, the weight of the saturated liquid was determined. The solvent was then evaporated, the solid residue dried to dryness and weighed. The solubility is reported as weight of solid substance dissolved divided by the weight of the solution.

[4] = Stability of ground and kneaded Form I by XRPD; settings: ball milling 10 min
Procedure: An untreated sample of Form I was ground by ball milling in a Retsch MM 200 grinder for 10 min at a frequency of 30 Hz. The sample was then analyzed by XRPD to determine its diffraction pattern. The stability of the ground sample was determined by comparing the diffraction pattern of the ground sample with that of the reference sample. […] In FIG. 26, the XRPD pattern for the Form I reference sample is shown in black and the pattern for the ground sample is shown in blue.
An untreated sample of Form I was ground by ball milling in a Retsch MM 200 grinder for 10 min at a frequency of 30 Hz with a catalytic amount of water. The sample was then analyzed by XRPD to determine its diffraction pattern. The stability of the kneaded sample was determined by comparing the diffraction pattern of the kneaded sample with that of the reference sample. […] In FIG. 27, the XRPD pattern for the Form I reference sample is shown in black and the XRPD pattern for the kneaded sample is shown in red.

Compound: Cc1ccccc1-c1cc(N2CCN(C)CC2)ncc1N(C)C(=O)C(C)(C)c1cc(C(F)(F)F)cc(C(F)(F)F)c1 [Form III, 2-(3,5-bis(trifluoromethyl)phenyl)-N,2-dimethyl-N-(6-(4-methylpiperazin-1-yl)-4-(o-tolyl)pyridin-3-yl)propanamide]
- solubility [1]: < 1000 µg/mL

Compound: Cc1ccccc1-c1cc(N2CCN(C)CC2)ncc1N(C)C(=O)C(C)(C)c1cc(C(F)(F)F)cc(C(F)(F)F)c1 [Form I, 2-(3,5-bis(trifluoromethyl)phenyl)-N,2-dimethyl-N-(6-(4-methylpiperazin-1-yl)-4-(o-tolyl)pyridin-3-yl)propanamide]
- Hygroscopicity (weight change 0 to 90%-RH) ([2]; 25° C., 0% RH to 90% RH): 0.1%
- Hygroscopicity classification ([2]; 25° C., 0% RH to 90% RH, European Pharmacopoeia classes): non-hygroscopic
- weight gain during the drying step and the first adsorption segment ([2]; first cycle, likely due to electrostatic charges): about 0.3%
- weight loss in the second cycle ([2]; second cycle): 0.1%
- Solubility (% m/m) ([3]; 25° C., 1-Butanol): >11.6 % m/m
- Solubility (% m/m) ([3]; 25° C., 2-Butanone): >11.2 % m/m
- Solubility (% m/m) ([3]; 25° C., Acetone): >11.1 % m/m
- Solubility (% m/m) ([3]; 25° C., Acetonitrile): 9 % m/m
- Solubility (% m/m) ([3]; 25° C., Cyclohexane): 4.2 % m/m
- Solubility (% m/m) ([3]; 25° C., Dichloroethane): >7.0 % m/m
- Solubility (% m/m) ([3]; 25° C., Dioxane): >9.0 % m/m
- Solubility (% m/m) ([3]; 25° C., Ethanol): >11.5 % m/m
- Solubility (% m/m) ([3]; 25° C., Heptane): 1.2 % m/m
- Solubility (% m/m) ([3]; 25° C., Isopropyl Acetate): 22.2 % m/m
- Solubility (% m/m) ([3]; 25° C., Methanol): >11.9 % m/m
- Solubility (% m/m) ([3]; 25° C., N,N-Dimethylformamide): >9.9 % m/m
- Solubility (% m/m) ([3]; 25° C., Tetrahydrofuran): >9.9 % m/m
- Solubility (% m/m) ([3]; 25° C., Toluene): >10.8 % m/m
- Solubility (% m/m) ([3]; 25° C., Trifluoroethanol): >7.5 % m/m
- Solubility (% m/m) ([3]; 25° C., Water): <0.1 % m/m
- Solubility (% m/m) ([3]; 25° C., Water/Acetone 1:2): 7.0 % m/m
- Solubility (% m/m) ([3]; 25° C., Water/Acetone 2:1): 0.2 % m/m
- Solubility (% m/m) ([3]; 25° C., Water/Acetonitrile 1:2): 6.2 % m/m
- Solubility (% m/m) ([3]; 25° C., Water/Acetonitrile 2:1): 0.5 % m/m
- Solubility (% m/m) ([3]; 25° C., Water/Dioxane 1:2): 4.9 % m/m
- Solubility (% m/m) ([3]; 25° C., Water/Dioxane 2:1): 0.1 % m/m
- Solubility (% m/m) ([3]; 25° C., Water/Ethanol 1:2): 3.1 % m/m
- Solubility (% m/m) ([3]; 25° C., Water/Ethanol 2:1): 0.1 % m/m
- Solubility (% m/m) ([3]; 25° C., Water/Methanol 1:2): 1.0 % m/m
- Solubility (% m/m) ([3]; 25° C., Water/Methanol 2:1): 0.2 % m/m
- Solubility (% m/m) ([3]; 25° C., Xylene): 18.4 % m/m
- Solubility (% m/m) ([3]; 60° C., 1-Butanol): 29.9 % m/m
- Solubility (% m/m) ([3]; 60° C., 2-Butanone): >52.6 % m/m
- Solubility (% m/m) ([3]; 60° C., 2-Propanol): 26.2 % m/m
- Solubility (% m/m) ([3]; 60° C., Acetone): >53.3 % m/m
- Solubility (% m/m) ([3]; 60° C., Acetonitrile): 14.4 % m/m
- Solubility (% m/m) ([3]; 60° C., Cyclohexane): 16.0 % m/m
- Solubility (% m/m) ([3]; 60° C., Dichloroethane): 34.7 % m/m
- Solubility (% m/m) ([3]; 60° C., Dioxane): >41.6 % m/m
- Solubility (% m/m) ([3]; 60° C., Ethanol): 33.1 % m/m
- Solubility (% m/m) ([3]; 60° C., Ethyl Acetate): 45.9 % m/m
- Solubility (% m/m) ([3]; 60° C., Heptane): 3.0 % m/m
- Solubility (% m/m) ([3]; 60° C., Isopropyl Acetate): >35.0 % m/m
- Solubility (% m/m) ([3]; 60° C., Methanol): 48.4 % m/m
- Solubility (% m/m) ([3]; 60° C., N,N-Dimethylformamide): 40.7 % m/m
- Solubility (% m/m) ([3]; 60° C., Tetrahydrofuran): >50.4 % m/m
- Solubility (% m/m) ([3]; 60° C., Toluene): 48.8 % m/m
- Solubility (% m/m) ([3]; 60° C., Trifluoroethanol): >39.1 % m/m
- Solubility (% m/m) ([3]; 60° C., Water): <0.1 % m/m
- Solubility (% m/m) ([3]; 60° C., Water/Acetone 1:2): 11.7 % m/m
- Solubility (% m/m) ([3]; 60° C., Water/Acetone 2:1): <0.1 % m/m
- Solubility (% m/m) ([3]; 60° C., Water/Acetonitrile 1:2): 6.4 % m/m
- Solubility (% m/m) ([3]; 60° C., Water/Acetonitrile 2:1): <0.1 % m/m
- Solubility (% m/m) ([3]; 60° C., Water/Dioxane 1:2): 21.1 % m/m
- Solubility (% m/m) ([3]; 60° C., Water/Dioxane 2:1): <0.1 % m/m
- Solubility (% m/m) ([3]; 60° C., Water/Ethanol 1:2): 5.5 % m/m
- Solubility (% m/m) ([3]; 60° C., Water/Ethanol 2:1): <0.1 % m/m
- Solubility (% m/m) ([3]; 60° C., Water/Methanol 1:2): 0.4 % m/m
- Solubility (% m/m) ([3]; 60° C., Water/Methanol 2:1): <0.1 % m/m
- Solubility (% m/m) ([3]; 60° C., Xylene): >35.0 % m/m
- stability of the ground sample (XRPD vs reference) ([4]; 30 Hz): loss of crystallinity
- stability of the kneaded sample (XRPD vs reference) ([4]; 30 Hz with a catalytic amount of water): increased degree of crystallinity
